Source: patent US7589213B2 (priority 2007, dated 2009)

Columns and labels:
EP2 [1] = target: T1, EP2 (Homo sapiens, UniProt P43116); experiment: EP2 cAMP assay; format: cell-based
Text: (§1) U.S. patent application Ser. No. 11/553,143, filed on Oct. 26, 2006, incorporated by reference herein, describes the methods used to obtain the in vitro data in the table below.

EP2 [2] = target: T1, EP2; experiment: EP2 flipr assay; format: cell-based
Text: as §1

EP2 [3] = target: T1, EP2; experiment: EP2 binding (Ki)
Text: as §1

hDP = target: T2, hDP (Homo sapiens, UniProt Q13258); experiment: Other receptors functional EC50, hDP; format: cell-based
T2 sequence (Q13258 1-359): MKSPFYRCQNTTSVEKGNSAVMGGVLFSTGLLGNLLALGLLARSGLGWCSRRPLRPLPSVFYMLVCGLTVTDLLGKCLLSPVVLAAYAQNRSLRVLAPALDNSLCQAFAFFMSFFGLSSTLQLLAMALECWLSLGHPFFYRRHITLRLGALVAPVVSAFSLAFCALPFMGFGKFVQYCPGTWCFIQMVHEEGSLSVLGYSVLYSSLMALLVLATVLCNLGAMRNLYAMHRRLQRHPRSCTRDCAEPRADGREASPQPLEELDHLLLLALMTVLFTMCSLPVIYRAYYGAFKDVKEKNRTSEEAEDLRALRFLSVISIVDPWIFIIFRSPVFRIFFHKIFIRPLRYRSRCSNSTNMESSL
Text: as §1

hEP3A = target: T3, hEP3A (Homo sapiens, UniProt P43115); experiment: Other receptors functional EC50, hEP3A; format: cell-based
T3 sequence (P43115 1-390): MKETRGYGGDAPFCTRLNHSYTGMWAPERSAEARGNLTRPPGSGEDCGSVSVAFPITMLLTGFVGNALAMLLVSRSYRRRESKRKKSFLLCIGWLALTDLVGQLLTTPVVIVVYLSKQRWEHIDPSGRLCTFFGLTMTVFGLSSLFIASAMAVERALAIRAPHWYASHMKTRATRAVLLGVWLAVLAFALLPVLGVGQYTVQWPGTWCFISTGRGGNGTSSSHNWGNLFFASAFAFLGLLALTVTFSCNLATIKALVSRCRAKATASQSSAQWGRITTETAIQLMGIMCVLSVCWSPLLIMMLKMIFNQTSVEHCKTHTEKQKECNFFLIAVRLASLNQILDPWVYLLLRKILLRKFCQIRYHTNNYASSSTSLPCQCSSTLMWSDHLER
Text: as §1

EP4 [4] = target: T4, EP4 (Homo sapiens, UniProt P35408); experiment: EP4 binding (KI)
T4 sequence (P35408 whole entry): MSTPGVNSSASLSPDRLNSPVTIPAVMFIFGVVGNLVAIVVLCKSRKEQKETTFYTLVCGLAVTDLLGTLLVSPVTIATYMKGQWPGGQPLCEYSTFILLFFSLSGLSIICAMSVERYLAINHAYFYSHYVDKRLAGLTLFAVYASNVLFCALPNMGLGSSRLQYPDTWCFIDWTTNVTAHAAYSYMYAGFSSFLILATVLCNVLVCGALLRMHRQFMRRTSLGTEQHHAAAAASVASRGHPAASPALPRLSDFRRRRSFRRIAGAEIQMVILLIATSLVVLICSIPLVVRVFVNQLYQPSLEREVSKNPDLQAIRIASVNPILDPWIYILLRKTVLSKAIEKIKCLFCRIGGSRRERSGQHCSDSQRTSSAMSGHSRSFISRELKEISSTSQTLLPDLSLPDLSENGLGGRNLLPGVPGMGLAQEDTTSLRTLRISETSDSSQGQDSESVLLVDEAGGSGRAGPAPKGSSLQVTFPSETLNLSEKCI
Text: as §1

hTP = target: T5, hTP (Homo sapiens, UniProt P21731); experiment: Other receptors functional EC50, hTP; format: cell-based
T5 sequence (P21731 1-343): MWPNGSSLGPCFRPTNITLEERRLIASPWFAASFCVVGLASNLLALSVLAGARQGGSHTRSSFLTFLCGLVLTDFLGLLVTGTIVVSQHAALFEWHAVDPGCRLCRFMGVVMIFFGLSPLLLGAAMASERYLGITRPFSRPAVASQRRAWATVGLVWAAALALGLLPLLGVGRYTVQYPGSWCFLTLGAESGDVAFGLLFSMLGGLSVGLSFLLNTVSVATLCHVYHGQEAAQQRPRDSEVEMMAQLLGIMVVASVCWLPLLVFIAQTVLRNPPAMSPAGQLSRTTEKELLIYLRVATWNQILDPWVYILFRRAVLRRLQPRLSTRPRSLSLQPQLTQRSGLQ
Text: as §1

hEP1 = target: T6, hEP1 (Homo sapiens, UniProt P34995); experiment: Other receptors functional EC50, hEP1; format: cell-based
T6 sequence (P34995 1-402): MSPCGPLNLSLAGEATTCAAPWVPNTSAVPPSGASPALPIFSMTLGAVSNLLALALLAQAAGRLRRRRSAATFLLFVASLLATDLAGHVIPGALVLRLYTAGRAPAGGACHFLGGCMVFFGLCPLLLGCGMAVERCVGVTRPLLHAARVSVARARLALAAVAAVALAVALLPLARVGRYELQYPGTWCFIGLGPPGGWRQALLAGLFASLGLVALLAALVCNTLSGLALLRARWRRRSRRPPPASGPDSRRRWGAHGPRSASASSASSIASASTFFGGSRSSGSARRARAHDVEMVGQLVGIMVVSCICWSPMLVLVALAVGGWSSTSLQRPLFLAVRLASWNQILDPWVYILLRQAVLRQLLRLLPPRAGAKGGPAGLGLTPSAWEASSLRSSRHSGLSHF
Text: as §1

hIP = hIP (Homo sapiens, UniProt P43119); experiment: Other receptors functional EC50, hIP; format: cell-based
hIP, sequence (P43119 whole entry): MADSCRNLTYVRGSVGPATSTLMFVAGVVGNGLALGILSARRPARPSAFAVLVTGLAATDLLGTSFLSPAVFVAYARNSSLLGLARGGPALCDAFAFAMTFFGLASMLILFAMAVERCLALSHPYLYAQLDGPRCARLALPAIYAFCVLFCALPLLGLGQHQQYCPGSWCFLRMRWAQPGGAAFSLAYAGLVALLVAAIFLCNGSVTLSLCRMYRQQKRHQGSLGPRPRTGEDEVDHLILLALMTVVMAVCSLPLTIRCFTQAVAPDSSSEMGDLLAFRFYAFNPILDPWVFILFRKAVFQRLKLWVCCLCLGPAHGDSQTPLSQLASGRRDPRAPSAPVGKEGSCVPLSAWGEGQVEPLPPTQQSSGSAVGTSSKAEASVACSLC
Text: as §1

normotensive dogs = experiment: Intraocular pressure and ocular surface hyperemia in normotensive dogs; format: in vivo, dog; details: once daily for 5 days
Experimental: U.S. Pat. No. 7,091,231 describes the methods used to carry out the tests reported below.
[…] The maximum intraocular pressure (IOP) decrease from baseline was 6.3 mmHg (39%) at 4 h; the maximum ocular surface hyperemia (OSH) score was 1.6 at 28 hours. This compound was also tested in laser-induced hypertensive monkeys, using one single day dose. At 0.01%, the maximum IOP decrease from baseline was 23 mmHg (61%) at 24 hours.

EP4 [5] = target: T4, EP4; experiment: EP4 flipr assay; format: cell-based
Text: as §1

T1 sequence (P43116 whole entry): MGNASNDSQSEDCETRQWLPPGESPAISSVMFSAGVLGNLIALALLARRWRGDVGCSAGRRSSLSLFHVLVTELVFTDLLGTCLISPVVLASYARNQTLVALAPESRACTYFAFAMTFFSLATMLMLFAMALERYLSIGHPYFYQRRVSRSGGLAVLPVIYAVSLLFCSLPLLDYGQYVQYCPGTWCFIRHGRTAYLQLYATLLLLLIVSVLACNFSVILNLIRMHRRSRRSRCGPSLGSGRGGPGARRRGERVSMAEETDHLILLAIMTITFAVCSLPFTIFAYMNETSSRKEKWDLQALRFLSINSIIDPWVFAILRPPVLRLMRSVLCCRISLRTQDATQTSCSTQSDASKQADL

Structure (SMILES)	EC50 (EP2 [1]) [nM]	EC50 (EP2 [2]) [nM]	Ki (EP2 [3]) [nM]	EC50 (hDP) [nM]	EC50 (hEP3A) [nM]	Ki (EP4 [4]) [nM]	EC50 (hTP) [nM]	EC50 (hEP1) [nM]	EC50 (hIP) [nM]	maximum ocular surface hyperemia (OSH) score (normotensive dogs; 0.01%, maximum at 28 hours)	maximum ocular surface hyperemia (OSH) score (normotensive dogs; 0.001%, maximum at 50 hours)	maximum ocular surface hyperemia (OSH) score (normotensive dogs; 0.01%, maximum at 26 hours)	EC50 (EP4 [5]) [nM]
CCCCCC(O)c1ccc(N2C(=O)CC[C@@H]2CCCc2nc(C(=O)O)cs2)cc1 (stereo partly drawn) [compound 63, (S)-2-(3-(1-(4-(1-hydroxyhexyl)phenyl)-5-oxopyrrolidin-2-yl)propyl)thiazole-4-carboxylic acid]	0.8	37	115	> 10000	42	–	–	–	–	–	–	–	–
CCCCCC(O)c1ccc(N2C(=O)CC[C@@H]2CCSc2nc(C(=O)OC(C)C)cs2)cc1 (single isomer, unassigned) [compound 68]	–	–	–	–	–	–	–	–	–	2.0	–	–	–
CCCCCC(O)c1ccc(N2C(=O)CC[C@@H]2CCSc2nc(C(=O)OC(C)C)cs2)cc1 (stereo partly drawn) [compound 66, Isopropyl 2-(2-((2R)-1-(4-(1-hydroxyhexyl)phenyl)-5-oxopyrrolidin-2-yl)ethylthio)thiazole-4-carboxylate]	–	–	–	–	–	–	–	–	–	1.6	–	–	–
CCCCCC(O)c1ccc(N2C(=O)CC[C@@H]2CCSc2nc(C(=O)OC(C)C)cs2)cc1 (single isomer, unassigned) [compound 67]	–	–	–	–	–	–	–	–	–	–	1.9	2.0	–
CCCCCC(F)c1ccc(N2C(=O)CC[C@@H]2COCc2csc(C(=O)O)c2)cc1 (stereo partly drawn) [compound 48, (R)-4-(((1-(4-(1-fluorohexyl)phenyl)-5-oxopyrrolidin-2-yl)methoxy)methyl)thiophene-2-carboxylic acid]	40	5010	1930	–	3410	> 10000	–	–	–	–	–	–	–
CCCCCC(F)c1ccc(N2C(=O)CC[C@@H]2COCc2cc(C(=O)O)cs2)cc1 (stereo partly drawn) [compound 43, (R)-5-(((1-(4-(1-fluorohexyl)phenyl)-5-oxopyrrolidin-2-yl)methoxy)methyl)thiophene-3-carboxylic acid]	7	3850	256	–	1960	> 10000	–	–	–	–	–	–	–
CCCCCC(O)c1ccc(N2C(=O)CC[C@@H]2COCc2cc(C(=O)O)cs2)cc1 (stereo partly drawn) [compound 42, (R)-5-(((1-(4-(1-hydroxyhexyl)phenyl)-5-oxopyrrolidin-2-yl)methoxy)methyl)thiophene-3-carboxylic acid]	5.5	2240	448	–	1520	> 10000	–	–	–	–	–	–	–
CCCCCC(O)c1ccc(N2C(=O)CC[C@@H]2COCc2csc(C(=O)O)c2)cc1 (stereo partly drawn) [compound 47, (R)-4-(((1-(4-(1-hydroxyhexyl)phenyl)-5-oxopyrrolidin-2-yl)methoxy)methyl)thiophene-2-carboxylic acid]	18	2530	784	–	1340	> 10000	–	–	–	–	–	–	–
CCCCCC(F)c1ccc(N2C(=O)CC[C@@H]2CSc2nc(C(=O)O)cs2)cc1 (stereo partly drawn) [compound 54]	117	212	345	16400	503	> 10000	14500	–	–	–	–	–	–
CCCCCC(O)c1ccc(N2C(=O)CC[C@@H]2CSc2nc(C(=O)O)cs2)cc1 (stereo partly drawn) [compound 55]	120	284	355	16000	360	> 10000	3890	–	–	–	–	–	–
CCCCCC(O)c1ccc(N2C(=O)CC[C@@H]2CCSc2ncc(C(=O)O)s2)cc1 (stereo partly drawn) [compound 22, (R)-2-(2-(1-(4-(1-hydroxyhexyl)phenyl)-5-oxopyrrolidin-2-yl)ethylthio)thiazole-5-carboxylic acid]	4	1800	389	> 10000	11400	> 10000	–	–	> 10000	–	–	–	–
CCCCCCC(O)c1ccc(N2C(=O)CC[C@@H]2CCSc2nc(C(=O)O)cs2)cc1 (single isomer, unassigned) [compound 36]	1.2	57	13	11900	11	> 10000	–	–	–	–	–	–	–
CCCCCCC(=O)c1ccc(N2C(=O)CC[C@@H]2CCSc2nc(C(=O)O)cs2)cc1 [compound 38, (R)-2-(2-(1-(4-heptanoylphenyl)-5-oxopyrrolidin-2-yl)ethylthio)thiazole-4-carboxylic acid]	0.7	45	18	594	43	3030	–	–	–	–	–	–	> 10000

Further lines, results first:

EC50 (EP2 [1]) [nM]	EC50 (EP2 [2]) [nM]	Ki (EP2 [3]) [nM]	EC50 (hDP) [nM]	EC50 (hEP3A) [nM]	Ki (EP4 [4]) [nM]	EC50 (hTP) [nM]	EC50 (hEP1) [nM]	EC50 (hIP) [nM]	maximum ocular surface hyperemia (OSH) score (normotensive dogs; 0.01%, maximum at 28 hours)	maximum ocular surface hyperemia (OSH) score (normotensive dogs; 0.001%, maximum at 50 hours)	maximum ocular surface hyperemia (OSH) score (normotensive dogs; 0.01%, maximum at 26 hours)	EC50 (EP4 [5]) [nM]	Structure (SMILES)
0.19	36	11	> 10000	44	> 10000	> 10000	> 10000	> 10000	–	–	–	–	CCCCCC(O)c1ccc(N2C(=O)CC[C@@H]2CCSc2nc(C(=O)O)cs2)cc1 (stereo partly drawn) [compound 14, (R)-2-(2-(1-(4-(1-hydroxyhexyl)phenyl)-5-oxopyrrolidin-2-yl)ethylthio)thiazole-4-carboxylic acid]
0.15	18	15	> 10000	35	–	–	> 10000	–	–	–	–	–	CCCCCC(O)c1ccc(N2C(=O)CC[C@@H]2CCSc2nc(C(=O)O)cs2)cc1 (single isomer, unassigned) [compound 17]
0.23	8	9	> 10000	90	> 10000	–	> 10000	–	–	–	–	–	CCCCCC(F)c1ccc(N2C(=O)CC[C@@H]2CCSc2nc(C(=O)O)cs2)cc1 (stereo partly drawn) [compound 19, (R)-2-(2-(1-(4-(1-fluorohexyl)phenyl)-5-oxopyrrolidin-2-yl)ethylthio)thiazole-4-carboxylic acid]
0.09	7	15	7170	46	–	–	–	–	–	–	–	–	CCCCCC(O)c1ccc(N2C(=O)CC[C@@H]2CCSc2nc(C(=O)O)cs2)cc1 (single isomer, unassigned) [compound 18]
0.4	11	9	5320	51	9150	–	–	–	–	–	–	14600	CCCCCCC(O)c1ccc(N2C(=O)CC[C@@H]2CCSc2nc(C(=O)O)cs2)cc1 (single isomer, unassigned) [compound 37]
0.4	3	12	1560	25	6360	–	> 10000	–	–	–	–	> 10000	CCCCCCC(O)c1ccc(N2C(=O)CC[C@@H]2CCSc2nc(C(=O)O)cs2)cc1 (stereo partly drawn) [compound 33, (R)-2-(2-(1-(4-(1-hydroxyheptyl)phenyl)-5-oxopyrrolidin-2-yl)ethylthio)thiazole-4-carboxylic acid]
